Source: patent publication US10660928B2, “Pharmaceutical composition containing combination extracts of Moutan Root Bark, Angelica Dahurica Root, bupleurum root or fractions thereof for prevention and treatment of neurodegenerative disorder” (UNIVERSITY-INDUSTRY COOPERATION GROUP OF KYUNG HEE …, priority 2014, dated 2020)

What was measured:
[1] = test system: SH-SY5Y, the human neuroblastoma cell line; assay: Cell survival rate (calcein) in normal cells, cytotoxicity; type: cell-based; details: 1 μg/ml
Description: Particularly, SH-SY5Y, the human neuroblastoma cell line, was inoculated in DMEM/F12 (Dulbeco's Modified Eagle's Medium & Ham's F12; Gibco, USA) supplemented with 10% FBS, followed by culture in a 37° C., 5% CO2/95% air (O2) incubator. Then, the cultured cells were transferred into a serum free medium at the density of 2.5×10^4 cells/well. […] The cells were collected and the cell survival rate was measured by using calcein. The survival rate of the cells that were increased or decreased compared with that of the normal control cells not-treated with the extract or its active component above and instead treated with DMSO was calculated and presented as percentage (%). Particularly, SH-SY5Y cells were cultured by the same manner as described in Experimental Example <1-1>. The cultured cells were transferred in a serum free medium at the density of 2.5×10^4 cells/well. […] The cells were collected and the cell survival rate was measured by using calcein. The cell survival rate that was increased or decreased compared with that of the normal control group not-treated with the extract or its active component above and instead treated with DMSO was calculated and presented as percentage (%).

[2] = test system: SH-SY5Y, the human neuroblastoma cell line; assay: MTT assay, atrazine-induced mitochondria complex 1 damage; type: cell-based; details: treatment 1 μg/ml, inducer atrazine 50 μg/ml
Description: Particularly, SH-SY5Y, the human neuroblastoma cell line, was inoculated in DMEM/F12 (1:1, Dulbeco's Modified Eagle's Medium & Ham's F12; Gibco, USA) supplemented with 10% FBS, followed by culture in a 37° C., 5% CO2/95% air (O2) incubator. Then, the cultured cells were transferred into a serum free medium at the density of 1×10^5 cells/well. […] Sigma, USA), followed by culture for 4 hours. Then, the MTT formazan precipitate formed by survived cells was dissolved in 100 μl of 0.04 N HCl/isopropanol. OD540 was measured with an ELISA microplate reader (Molecular Devices, USA). The damage of mitochondria complex 1 was confirmed to see how the damage level was either increased or decreased, compared with the normal control group treated with DMSO without the extract or its active component. In the meantime, the negative control group was treated with 50 μg/ml of atrazine alone to induce mitochondrial damage and was not treated with the extract or its active component. Then, MTT assay was performed by the same manner as described above.

SH-SY5Y cells = assay: ATP assay, atrazine-induced loss of intracellular ATP; type: cell-based, human; details: treatment 1 μg/ml, inducer atrazine 50 μg/ml
Description: Particularly, SH-SY5Y cells were cultured by the same manner as described in Experimental Example <1-2>, to which 50 μg/ml of atrazine was treated to induce malfunction of mitochondria. Then, 100 μl of the cell lysate obtained from the cells with the malfunctioned mitochondria was mixed with 100 μl of luciferin-luciferase by using ATP bioluminescent somatic cell assay kit (Sigma, USA), followed by culture at 20° C. for 10 minutes. The supernatant was obtained. Fluorescence signal was measured by using LB 9501 Lumat luminometer (Berthold, Germany). The fluorescence of the control well containing the cell free medium was used as the background. The measured values were calculated by subtracting the background, and the amount of ATP was normalized to the protein concentration. The normal control was not treated with the extract of the invention or the active component thereof but instead treated with DMSO alone. All the results were presented as % by the normal control to present the intracellular ATP level. The negative control was treated with 50 μg/ml of atrazine alone to induce mitochondrial damage and not treated with the extract or the active component thereof. The Intracellular ATP level was measured by the same manner as described above.

[3] = test system: cytochrome c oxidase subunit III (COX III); assay: RT-PCR of COX III expression, atrazine-damaged cells; type: cell-based, human; details: 1 μg/ml
Description: (§1) Particularly, SH-SY5Y cells were cultured by the same manner as described in Experimental Example <1-2>, and mitochondrial malfunction was induced. Then, the cells with the malfunctioned mitochondria were suspended in TRIzol (Invitrogen, USA) and total RNA was extracted therefrom according to the manufacturer's protocol. […] PCR was performed with GeneAmp PCR system 9700 (Applied Biosystem, USA) under the required optimum condition by using the synthesized cDNA as a template in the presence of the forward and reverse primers listed in Table 5 below, leading to the amplification of COX III and Park? (DJ-1) genes. The amplified PCR products were electrophoresed on 1.5% agarose gel. The relative concentration was measured by using an image densitometer (Alpha Ease FC software; Alpha Innotech, USA) under UV. The level of mRNA was standardized by comparison with the level of 18S rRNA. The normal control was not treated with the extract of the invention or the active component thereof but instead treated with DMSO alone. The negative control was treated with 50 μg/ml of atrazine alone to induce mitochondrial damage and not treated with the extract or the active component thereof. The gene expression level was investigated by the same manner as described above.

Park7 (DJ-1) = assay: RT-PCR of Park7 (DJ-1) expression, atrazine-damaged cells; type: cell-based, human; details: 1 μg/ml
Description: as §1

BV2 cells [4] = assay: Griess method, nitric oxide in medium of LPS-induced cells; type: cell-based, mouse; details: BV2, treatment 1.0 μg/ml, inducer LPS 100 ng/ml
Description: Particularly, BV2 cells were cultured by the same manner as described in Experimental Example <3-1>, and inflammatory response was induced. Then, 100 μl of the cell culture medium was obtained, to which 100 μl of Griess reagent comprising hydrochloric acid containing 5% sulfanilamide and 2% naphthylethylenediamine was added, followed by reaction in a dark room for 30 minutes. Upon completion of the reaction, OD540 was measured with an EISA microplate reader (Versamax, USA). The concentration of nitric oxide in the medium was calculated using the standard calibration curve of sodium nitrite. The normal control was not treated with the extract or the active component thereof but treated with DMSO. The negative control was treated with 100 ng/ml of LPS alone to induce inflammatory response but not treated with the extract or the active component. Then, the nitric oxide concentration reduction effect was investigated by the same manner as described above.
(§2) Particularly, BV2 cells were cultured by the same manner as described in Experimental Example <3-1>, and inflammatory response was induced. Then, 100 μl of the cell culture medium was obtained, to which 100 μl of Griess reagent comprising hydrochloric acid containing 5% sulfanilamide and 2% naphthylethylenediamine was added, followed by reaction in a dark room for 30 minutes. Upon completion of the reaction, OD540 was measured with an EISA microplate reader (Versamax, USA). The concentration of nitric oxide in the medium was calculated using the standard calibration curve of sodium nitrite. To measure the ROS concentration, the cells were treated with 1 μM DCF-DA and 0.05 μM bisbenzimide (Hoechst 33342), followed by staining at 37° C. for 1 hour. After the staining, the fluorescence intensity of DCF-DA was measured at 485 nm/535 nm, and the fluorescence intensity of bisbenzimide was measured at 335 nm/460 nm. Based on the ratio of DCF-DA/bisbenzimide, ROS was quantified. The amount of ROS, either increased or decreased, was compared with that of the normal control not treated with the extract but treated with DMSO, and the results were presented as %. The negative control was treated with 100 ng/ml of LPS alone to induce inflammatory response but not treated with the extract or the active component thereof. Then, the nitric oxide concentration reduction effect and the ROS concentration reduction effect were investigated by the same manner as described above.

interleukin-6, (IL-6) = assay: RT-PCR of IL-6 mRNA, LPS-induced cells; type: cell-based, mouse; details: BV2, treatment 1.0 μg/ml, LPS 100 ng/ml; negative control 100.00
Description: (§3) Particularly, BV2 cells were cultured by the same manner as described in Experimental Example <3-1>, and inflammatory response was induced. Then, RT-PCR was performed with the cells by the same manner as described in Experimental Example <1-4>, followed by quantitative analysis of the expression levels of iNOS, IL-6, and NF-kB p65/ReIA genes. The normal control was not treated with the extract of the invention or the active component thereof but treated with DMSO alone. The negative control was not treated with the extract or the active component but treated with 100 ng/ml of LPS alone to induce inflammatory response. Then, the expression of the inflammatory response marker gene was confirmed by the same manner as described above.

BV2 cells [5] = assay: MTT assay, LPS-induced inflammatory response; type: cell-based, mouse; details: BV2, treatment 1.0 μg/ml, inducer LPS 100 ng/ml
Description: Particularly, BV2 cells were cultured by the same manner as described in Experimental Example <3-1>. Then, the cultured cells were transferred into a serum free medium at the density of 1×10^5 cells/well. The cells were treated with the Bupleurum Root 90% ethanol extract prepared in Example <1-3>, saikosaponin A, saikosaponin B2, saikosaponin B4, or saikosaponin D at the concentration of 1.0 μg/ml, followed by culture for 4 hours. The cells were then treated with 100 ng/ml of lipopolysaccharide (LPS), followed by culture for 20 hours to induce inflammatory response. MTT assay was performed with the cells induced with inflammatory response by the same manner as described in Experimental Example <1-2>. The damage of mitochondria complex 1 was confirmed to see how the damage level was either increased or decreased, compared with the normal control group treated with DMSO without the extract or its active component. In the meantime, the negative control group was treated with 100 ng/ml of LPS alone to induce inflammatory response and was not treated with the extract or its active component. Then, MTT assay was performed by the same manner as described above.

[6] = test system: inducible nitric oxide synthase (iNOS); assay: RT-PCR of iNOS mRNA, LPS-induced cells; type: cell-based, mouse; details: BV2, treatment 1.0 μg/ml, LPS 100 ng/ml; negative control 100.00
Description: as §3

BV2 cells [7] = assay: DCF-DA intracellular ROS, LPS-induced cells; type: cell-based, mouse; details: BV2, treatment 1.0 μg/ml, inducer LPS 100 ng/ml
Description: Particularly, BV2 cells were cultured by the same manner as described in Experimental Example <3-1>, and inflammatory response was induced. Then, the cells induced with inflammatory response were treated with 1 μM DCF-DA and 0.05 μM bisbenzimide (Hoechst 33342), followed by staining at 37° C. for 1 hour. After the staining, the fluorescence intensity of DCF-DA was measured at 485 nm/535 nm, and the fluorescence intensity of bisbenzimide was measured at 335 nm/460 nm. Based on the ratio of DCF-DA/bisbenzimide, ROS was quantified. The amount of ROS, either increased or decreased, was compared with that of the normal control not treated with the extract or the active component thereof but treated with DMSO, and the results were presented as %. The negative control was treated with 100 ng/ml of LPS alone to induce inflammatory response but not treated with the extract or the active component thereof. Then, the generation of ROS was investigated by the same manner as described above.
as §2

NF-kB p65/ReIA = assay: RT-PCR of NF-kB p65/ReIA mRNA, LPS-induced cells; type: cell-based, mouse; details: BV2, treatment 1.0 μg/ml, LPS 100 ng/ml; negative control 100.00
Description: as §3

[8] = normal SH-SY5Y cells, 4 hours, calcein

COc1ccc(C(C)=O)c(O)c1 [Paeonol, 2′-Hydroxy-4′-methoxyacetophenone]
Cell survival rate (% of control) [1, 8]: 102.2 ± 9.10 % of control
MTT (% of control) [2]: 101.8 ± 7.21 % of control
Intracellular ATP content (% of control) (SH-SY5Y cells): 101.9 ± 7.42 % of control
COX III/18S rRNA ([3]; with atrazine): 1.07 ± 0.07
COX III/18S rRNA ([3]; without atrazine): 1.05 ± 0.03
Park7(DJ-1)/18S rRNA (Park7 (DJ-1); with atrazine): 0.95 ± 0.07
Park7(DJ-1)/18S rRNA (Park7 (DJ-1); without atrazine): 1.22 ± 0.08

C[C@@]12CC(=O)[C@H]3C[C@]1(O)O[C@H](O2)[C@@H]3COC(=O)c1ccccc1 [paeoniflorigenone, [(2s,3as,5s,7ar,8s)-3a-hydroxy-7a-methyl-6-oxohexahydro-2,5-methano-1,3-benzodioxol-8-yl]methyl benzoate]
Cell survival rate (% of control) ([1]; human, 4 h): 98.9 ± 8.10 % of control
MTT (% of control) [2]: 95.5 ± 6.09 % of control
Intracellular ATP content (% of control) (SH-SY5Y cells): 89.1 ± 7.97 % of control
COX III/18S rRNA ([3]; with atrazine): 0.86 ± 0.07
COX III/18S rRNA ([3]; without atrazine): 1.04 ± 0.05
Park7(DJ-1)/18S rRNA (Park7 (DJ-1); with atrazine): 0.45 ± 0.02
Park7(DJ-1)/18S rRNA (Park7 (DJ-1); without atrazine): 0.98 ± 0.08

C[C@@]12C[C@@]3(O)O[C@@H](O1)[C@]1(COC(=O)c4ccccc4)[C@H]3C[C@@]12O[C@@H]1O[C@H](CO)[C@@H](O)[C@H](O)[C@H]1O [paeoniflorin]
Cell survival rate (% of control) [1, 8]: 97.9 ± 7.34 % of control
MTT (% of control) [2]: 96.4 ± 7.44 % of control
Intracellular ATP content (% of control) (SH-SY5Y cells): 94.3 ± 6.44 % of control
COX III/18S rRNA ([3]; with atrazine): 0.92 ± 0.08
COX III/18S rRNA ([3]; without atrazine): 1.11 ± 0.04
Park7(DJ-1)/18S rRNA (Park7 (DJ-1); with atrazine): 2.03 ± 0.07
Park7(DJ-1)/18S rRNA (Park7 (DJ-1); without atrazine): 1.05 ± 0.08

C[C@H]1O[C@@H](O[C@H]2CC[C@@]3(C)[C@@H](CC[C@]4(C)[C@@H]3C=C[C@]35OC[C@@]6(CCC(C)(C)C[C@H]63)[C@@H](O)C[C@]54C)[C@]2(C)CO)[C@H](O)[C@@H](O[C@@H]2O[C@H](CO)[C@@H](O)[C@H](O)[C@H]2O)[C@H]1O [saikosaponin A, (3beta,4alpha,16beta)-13,28-Epoxy-16,23-dihydroxyolean-11-en-3-yl-6-deoxy-3-O-beta-D-glucopyranosyl-beta-D-galactopyranoside]
NO (BV2 cells [4]): 10.8 ± 3.6 µM
IL-6 mRNA (% of control) (interleukin-6, (IL-6)): 18.05 ± 1.23 % of control
MTT (% of control) (BV2 cells [5]): 91.49 ± 6.20 % of control
iNOS mRNA (% of control) [6]: 14.85 ± 1.47 % of control
DCF-DA-ROS (% of control) (BV2 cells [7]): 198.24 ± 3.72 % of control
p65/ReIA mRNA (% of control) (NF-kB p65/ReIA): 40.38 ± 1.05 % of control
